Experiments:
HeLa cells = assay: Proliferation assay (HeLa, crystal violet); format: cell-based; settings: Homo sapiens, 96 h, 4 days incubation, crystal violet staining, read-out: Inhibition of HeLa cell proliferation
Procedure: Human tumour cells were originally obtained from the American Type Culture Collection (ATCC), the Deutsche Sammlung von Mikroorganismen und Zellkulturen (DSMZ, German Collection of Microorganisms and Cell Cultures) or Epo GmbH, Berlin.
Adherently growing cells (HeLa, HeLa-MaTu-ADR, HT-144, Lovo, HT-29, NCI-H460, DU145, Caco2, B16F10) were plated out in a density of 1500-4000 cells/measurement point, depending on the rate of growth of the cell line, in a 96-well multititre plate in 200 μl of growth medium (DMEM/HAMS F12, 2 mM L-glutamine, 10% foetal calf serum). After 24 hours, the cells of one plate (zero plate) were dyed with crystal violet (see below), whereas the medium of the other plates was replaced with fresh culture medium (200 μl) to which the test substances were added in various concentrations (0 μM, and also in the range of 0.001-10 μM; the final concentration of the solvent dimethyl sulphoxide was 0.1 or 0.5%). The cells were incubated for 4 days in the presence of the test substances. Cell proliferation was determined by staining the cells with crystal violet: the cells were fixed at room temperature for 15 min by adding 20 μl/measurement point of an 11% strength glutaraldehyde solution. After washing the fixed cells three times with water, the plates were dried at room temperature. The cells were stained by adding 100 μl/measurement point of a 0.1% strength crystal violet solution (pH adjusted to pH 3 by adding acetic acid). After washing the cells three times with water, the plates were dried at room temperature. The dye was dissolved by adding 100 μl/measurement point of a 10% strength acetic acid solution. Absorbance was determined photometrically at a wavelength of 595 nm. The percentage change in cell growth was calculated by normalizing the measured values to the absorbance values of the zero plate (=0%) and the absorbance of the untreated (0 μM) cells (=100%). The IC50 values were determined by means of a four parameter fit.
Inhibition of proliferation of HeLa cells by compounds according to the present invention, determined as described above. All IC50 (inhibitory concentration at 50% of maximal effect) values are indicated in M, “n.t.” means that the compounds have not been tested in the respective assay.

[1] = target: full-length human ATR protein (ATR/ATRIP) (Homo sapiens (Human), UniProt Q13535); assay: Binding Assay ATR (TR-FRET, tracer A displacement); settings: displacement of fluorescent tracer A from GST-ATR/ATRIP
Description: To determine of binding activity of the test compounds, full-length human ATR protein was expressed and purified together with ATRIP as described above. Furthermore, a fluorescently labelled compound (tracer A as described above) was used as a tracer molecule. Detection of the binding event of the tracer was achieved by time-resolved fluorescence energy transfer (TR-FRET). We used an anti-GST-Terbium antibody (CisBio) that binds to the GST-tag at the N-terminus of ATR-kinase. Excitation of Terbium with 337 nm light results in emission of fluorescent light with 545 nm. In case a tetrameric complex has formed (antiGST-Tb+GST-ATR+Strp2-ATRIP+tracer), part of the energy will be transferred from the Terbium to the fluorophore that itself emits light of 570 nm. Displacement of the fluorescent tracer by a test compound leads to a reduction of the TR-FRET-signal.
For the assay 50 nl of a 100-fold concentrated solution of the test compound in DMSO was pipetted into a black low volume 384 well microtiter plate (MTP, Greiner Bio-One, Frickenhausen, Germany). To prepare the ATR-working solution, ATR/ATRIP stock solution was diluted in assay buffer [50 mM HEPES (pH 7.0), 10 mM MgCl2, 1 mM DTT, 0.01% (w/v) Igepal, 0.01% (w/v) BSA] to 4.2 nM protein concentration (concentration may vary from lot to lot of protein preparation). AntiGST-Tb antibody was diluted to 4.2 nM. The ATR-working solution was incubated for 30 min at 22° C. prior to dispensing to pre-form the complex of antiGST-Tb+GST-ATR+ATRIP. Then, 3 μl of the ATR-working solution were added to the test compound and the mixture was incubated for 10 min at 22° C. to allow pre-binding of the test compounds to ATR/ATRIP. Then, 2 μl of a 100 nM solution of tracer A in assay buffer were added to the ATR-working solution. The resulting mixture was incubated for 30 min at 22° C. The measurement of the TR-FRET signal was performed in a standard HTRF-compatible MTP reader instrument (e.g. BMG Pherastar) by recording the fluorescence emissions at 545 nm and 570 nm after excitation at 337-350 nm. The ratio between emission at 570 nm divided by emission at 545 nm was calculated to give the well ratio. The experimental data (well ratios) were normalised by the following way: positive control contained ATR-working solution plus tracer A solution (=0% inhibition), the negative control contained all components except GST-ATR/ATRIP (=100% inhibition). Usually the compounds were tested on the same MTP in 11 different concentrations in the range of 20 μM to 0.1 nM (20 μM, 5.9 μM, 1.7 μM, 0.51 μM, 0.15 μM, 44 nM, 13 nM, 3.8 nM, 1.1 nM, 0.33 nM and 0.1 nM). The dilution series were prepared separately before the assay on the level of the 100 fold concentrated solutions in DMSO by serial 1:3.4 dilutions in duplicate values for each concentration. IC50 values were calculated by a 4 parameter fit using standard software (GraphPad prism or equivalent).

full-length human ATR protein (ATR/ATRIP), sequence (Q13535 other isoform, or with tags, fused parts or gaps): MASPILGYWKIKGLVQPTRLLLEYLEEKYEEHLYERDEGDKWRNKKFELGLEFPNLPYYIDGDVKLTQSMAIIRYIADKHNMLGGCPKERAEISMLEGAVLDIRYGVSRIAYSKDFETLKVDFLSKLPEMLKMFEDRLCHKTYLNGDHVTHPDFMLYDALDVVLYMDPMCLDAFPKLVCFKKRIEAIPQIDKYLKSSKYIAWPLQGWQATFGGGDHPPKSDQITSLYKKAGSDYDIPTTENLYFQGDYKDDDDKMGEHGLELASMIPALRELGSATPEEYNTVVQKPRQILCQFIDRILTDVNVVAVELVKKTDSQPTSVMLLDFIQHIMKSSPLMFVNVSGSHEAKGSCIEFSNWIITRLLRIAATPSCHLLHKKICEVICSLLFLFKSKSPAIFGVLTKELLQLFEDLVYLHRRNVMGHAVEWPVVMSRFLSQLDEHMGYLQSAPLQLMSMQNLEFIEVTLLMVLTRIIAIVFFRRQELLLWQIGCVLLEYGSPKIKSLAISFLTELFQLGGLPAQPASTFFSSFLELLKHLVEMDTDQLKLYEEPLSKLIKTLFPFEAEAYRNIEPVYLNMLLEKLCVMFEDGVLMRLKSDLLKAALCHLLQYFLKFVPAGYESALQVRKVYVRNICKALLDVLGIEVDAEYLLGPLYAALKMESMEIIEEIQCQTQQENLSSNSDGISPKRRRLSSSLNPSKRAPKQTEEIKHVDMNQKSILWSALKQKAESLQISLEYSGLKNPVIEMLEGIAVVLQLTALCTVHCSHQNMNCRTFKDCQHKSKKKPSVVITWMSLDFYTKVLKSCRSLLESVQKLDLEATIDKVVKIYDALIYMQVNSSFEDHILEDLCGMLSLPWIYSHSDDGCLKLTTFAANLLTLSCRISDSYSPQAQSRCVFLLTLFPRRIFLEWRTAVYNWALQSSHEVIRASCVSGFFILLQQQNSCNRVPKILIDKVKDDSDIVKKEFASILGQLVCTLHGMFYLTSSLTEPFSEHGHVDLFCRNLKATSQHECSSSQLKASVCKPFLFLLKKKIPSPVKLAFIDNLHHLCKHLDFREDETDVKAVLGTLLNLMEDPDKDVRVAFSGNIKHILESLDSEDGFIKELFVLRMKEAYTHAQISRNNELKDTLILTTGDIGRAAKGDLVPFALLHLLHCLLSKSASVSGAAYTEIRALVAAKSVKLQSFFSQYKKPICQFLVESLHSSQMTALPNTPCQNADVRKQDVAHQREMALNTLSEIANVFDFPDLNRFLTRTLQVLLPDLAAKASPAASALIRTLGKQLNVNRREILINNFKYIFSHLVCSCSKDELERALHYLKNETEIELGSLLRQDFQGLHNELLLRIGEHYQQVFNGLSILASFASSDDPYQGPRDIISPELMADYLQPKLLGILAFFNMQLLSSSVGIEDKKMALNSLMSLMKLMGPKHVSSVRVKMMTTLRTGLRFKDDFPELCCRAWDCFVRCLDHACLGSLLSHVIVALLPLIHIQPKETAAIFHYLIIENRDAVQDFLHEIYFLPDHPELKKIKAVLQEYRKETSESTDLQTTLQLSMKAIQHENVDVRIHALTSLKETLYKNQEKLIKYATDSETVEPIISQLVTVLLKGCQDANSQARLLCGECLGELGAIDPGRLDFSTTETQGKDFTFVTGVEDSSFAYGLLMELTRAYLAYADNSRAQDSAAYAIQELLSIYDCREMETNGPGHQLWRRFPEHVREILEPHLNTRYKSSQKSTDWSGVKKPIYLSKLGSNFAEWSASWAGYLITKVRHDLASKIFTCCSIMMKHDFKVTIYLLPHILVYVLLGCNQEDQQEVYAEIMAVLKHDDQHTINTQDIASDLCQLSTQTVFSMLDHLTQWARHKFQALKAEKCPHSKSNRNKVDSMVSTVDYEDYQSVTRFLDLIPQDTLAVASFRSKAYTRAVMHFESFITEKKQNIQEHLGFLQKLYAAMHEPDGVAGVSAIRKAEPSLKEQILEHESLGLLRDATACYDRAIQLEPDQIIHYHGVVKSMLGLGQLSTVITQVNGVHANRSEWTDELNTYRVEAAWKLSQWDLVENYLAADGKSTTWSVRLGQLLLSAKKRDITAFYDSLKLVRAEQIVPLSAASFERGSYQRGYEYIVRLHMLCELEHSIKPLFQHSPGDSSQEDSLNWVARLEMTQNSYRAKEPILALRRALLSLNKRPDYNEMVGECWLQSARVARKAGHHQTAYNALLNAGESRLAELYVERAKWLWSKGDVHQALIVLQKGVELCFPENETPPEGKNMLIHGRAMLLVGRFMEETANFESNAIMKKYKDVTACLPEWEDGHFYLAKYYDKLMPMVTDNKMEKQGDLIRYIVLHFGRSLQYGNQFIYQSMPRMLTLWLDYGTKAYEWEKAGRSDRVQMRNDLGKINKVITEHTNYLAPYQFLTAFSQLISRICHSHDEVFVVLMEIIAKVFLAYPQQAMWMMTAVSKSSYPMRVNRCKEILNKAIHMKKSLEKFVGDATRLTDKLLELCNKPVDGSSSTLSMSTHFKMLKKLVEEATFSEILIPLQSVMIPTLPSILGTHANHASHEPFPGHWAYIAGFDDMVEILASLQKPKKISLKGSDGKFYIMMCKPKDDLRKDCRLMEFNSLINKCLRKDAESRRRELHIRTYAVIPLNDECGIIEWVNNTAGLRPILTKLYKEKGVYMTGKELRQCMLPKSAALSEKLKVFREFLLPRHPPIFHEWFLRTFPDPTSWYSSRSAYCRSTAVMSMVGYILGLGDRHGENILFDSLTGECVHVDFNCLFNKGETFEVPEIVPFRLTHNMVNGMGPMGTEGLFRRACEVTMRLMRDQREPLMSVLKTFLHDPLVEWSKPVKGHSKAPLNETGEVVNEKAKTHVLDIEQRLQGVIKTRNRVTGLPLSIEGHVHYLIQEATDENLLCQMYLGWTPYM
full-length human ATR protein (ATR/ATRIP), sequence (Q8WXE1 other isoform, or with tags, fused parts or gaps partner): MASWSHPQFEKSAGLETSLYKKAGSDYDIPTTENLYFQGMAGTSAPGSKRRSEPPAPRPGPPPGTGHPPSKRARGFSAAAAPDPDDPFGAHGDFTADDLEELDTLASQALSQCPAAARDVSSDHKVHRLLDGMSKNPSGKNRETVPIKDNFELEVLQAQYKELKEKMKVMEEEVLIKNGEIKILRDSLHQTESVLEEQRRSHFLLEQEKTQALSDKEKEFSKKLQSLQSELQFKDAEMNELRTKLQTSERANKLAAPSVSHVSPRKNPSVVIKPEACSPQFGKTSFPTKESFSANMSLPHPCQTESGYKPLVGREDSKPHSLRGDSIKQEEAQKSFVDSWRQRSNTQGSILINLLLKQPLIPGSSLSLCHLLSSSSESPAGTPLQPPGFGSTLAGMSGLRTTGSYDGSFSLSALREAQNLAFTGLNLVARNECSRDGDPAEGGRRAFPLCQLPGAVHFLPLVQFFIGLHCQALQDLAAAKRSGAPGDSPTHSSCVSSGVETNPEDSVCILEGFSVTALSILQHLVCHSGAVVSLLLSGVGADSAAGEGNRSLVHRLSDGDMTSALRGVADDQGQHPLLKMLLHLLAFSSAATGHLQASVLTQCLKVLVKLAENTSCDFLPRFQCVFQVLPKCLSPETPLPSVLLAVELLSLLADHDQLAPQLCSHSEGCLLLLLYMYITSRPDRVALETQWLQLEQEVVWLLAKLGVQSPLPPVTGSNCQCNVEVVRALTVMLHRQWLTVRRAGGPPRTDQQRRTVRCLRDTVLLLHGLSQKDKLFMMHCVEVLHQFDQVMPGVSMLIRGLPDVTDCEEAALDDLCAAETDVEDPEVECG

Question: `Cc1cnc(-c2ccn[nH]2)c2nc(N3CCOC[C@H]3C)cc(-c3cccnc3F)c12` [Example 3, 4-(2-fluoropyridin-3-yl)-5-methyl-2-[(3R)-3-methylmorpholin-4-yl]-8-(1H-pyrazol-5-yl)-1,7-naphthyridine] was tested. Which IC50 (HeLa cells) did it give?
Answer: 154 nM

Question: What about the IC50 [1] of the same compound?
Answer: 8.13 nM

Question: For `Cc1nc(S(C)(=O)=O)ccc1-c1cc(N2CCOC[C@H]2C)nc2c(-c3ccn[nH]3)ncc(C)c12` [Example 4, 5-methyl-4-[2-methyl-6-(methylsulfonyl)pyridin-3-yl]-2-[(3R)-3-methylmorpholin-4-yl]-8-(1H-pyrazol-5-yl)-1,7-naphthyridine], which IC50 (HeLa cells) is on record?
Answer: 333 nM

Question: What about the IC50 [1] of the same compound?
Answer: 37.3 nM

Question: How did the IC50 (HeLa cells) turn out when `Cc1cnc(-c2ccn[nH]2)c2nc(N3CCOC[C@H]3C)cc(-c3cnc(Cl)n3C)c12` [Example 5, 4-(2-chloro-1-methyl-1H-imidazol-5-yl)-5-methyl-2-[(3R)-3-methylmorpholin-4-yl]-8-(1H-pyrazol-5-yl)-1,7-naphthyridine] was run?
Answer: 85.1 nM

Question: And the IC50 [1]?
Answer: 5.07 nM

Question: How did the IC50 (HeLa cells) turn out when `Cc1cnc(-c2ccn[nH]2)c2nc(N3CCOC[C@H]3C)cc(-c3ccc(N4CCNCC4)cc3F)c12` [Example 6, 4-[2-fluoro-4-(piperazin-1-yl)phenyl]-5-methyl-2-[(3R)-3-methylmorpholin-4-yl]-8-(1H-pyrazol-5-yl)-1,7-naphthyridine] was run?
Answer: 296 nM

Question: What about the IC50 [1] of the same compound?
Answer: 14.2 nM

Question: Which IC50 (HeLa cells) does the source give for `Cc1cnc(-c2ccn[nH]2)c2nc(N3CCOC[C@H]3C)cc(-c3cccc(F)c3F)c12` [Example 7, 4-(2,3-difluorophenyl)-5-methyl-2-[(3R)-3-methylmorpholin-4-yl]-8-(1H-pyrazol-5-yl)-1,7-naphthyridine] here?
Answer: 499 nM

Question: And the IC50 [1]?
Answer: 8.27 nM

Question: Which results are given for `Cc1cnc(-c2ccn[nH]2)c2nc(N3CCOC[C@H]3C)cc(N=S3(=O)CCCC3)c12` [Example 8, N-5-methyl-2-[(3R)-3-methylmorpholin-4-yl]-8-(1H-pyrazol-5-yl)-1,7-naphthyridin-4-yltetrahydro-1H-1λ^4-thiophen-1-imine 1-oxide]?
Answer: IC50 (HeLa cells): 473 nM; IC50 [1]: 35.5 nM

Question: With `CCS(=O)(CC)=Nc1cc(N2CCOC[C@H]2C)nc2c(-c3ccn[nH]3)ncc(C)c12` [Example 9, 4-[diethyl(oxido)-λ^6-sulfanylidene]amino-5-methyl-2-[(3R)-3-methylmorpholin-4-yl]-8-(1H-pyrazol-5-yl)-1,7-naphthyridine] as the compound, how does the IC50 (HeLa cells) read?
Answer: 117 nM

Question: And the IC50 [1]?
Answer: 14.1 nM

Question: `Cc1cnc(-c2ccn[nH]2)c2nc(N3CCOC[C@H]3C)cc(N3CCOCC3)c12` [Example 10, 5-methyl-2-[(3R)-3-methylmorpholin-4-yl]-4-(morpholin-4-yl)-8-(1H-pyrazol-5-yl)-1,7-naphthyridine] was tested. Which IC50 (HeLa cells) did it give?
Answer: 109 nM

Question: What about the IC50 [1] of the same compound?
Answer: 8.91 nM

Question: `Cc1cnc(-c2ccn[nH]2)c2nc(N3CCOC[C@H]3C)cc(N3CCC(CO)CC3)c12` [Example 11, (1-{5-methyl-2-[(3R)-3-methylmorpholin-4-yl]-8-(1H-pyrazol-5-yl)-1,7-naphthyridin-4-yl}piperidin-4-yl)methanol] was tested. Which IC50 (HeLa cells) did it give?
Answer: 33.2 nM

Question: And the IC50 [1]?
Answer: 3.8 nM

Question: `Cc1cnc(-c2ccn[nH]2)c2nc(N3CCOC[C@H]3C)cc(N3CCN(S(C)(=O)=O)CC3)c12` [Example 12, 5-methyl-2-[(3R)-3-methylmorpholin-4-yl]-4-[4-(methylsulfonyl)piperazin-1-yl]-8-(1H-pyrazol-5-yl)-1,7-naphthyridine] was tested. Which IC50 (HeLa cells) did it give?
Answer: 440 nM

Question: And the IC50 [1]?
Answer: 5.49 nM

Question: With `Cc1cnc(-c2ccn[nH]2)c2nc(N3CCOC[C@H]3C)cc(N(C)CC(C)(C)C)c12` [Example 13, N-(2,2-dimethylpropyl)-N,5-dimethyl-2-[(3R)-3-methylmorpholin-4-yl]-8-(1H-pyrazol-5-yl)-1,7-naphthyridin-4-amine] as the compound, how does the IC50 (HeLa cells) read?
Answer: 745 nM

Question: What about the IC50 [1] of the same compound?
Answer: 4.93 nM

Question: What does the source list for `COC(=O)c1cc(N2CCOC[C@H]2C)nc2c(-c3ccn[nH]3)ncc(C)c12` [Example 14, methyl 5-methyl-2-[(3R)-3-methylmorpholin-4-yl]-8-(1H-pyrazol-5-yl)-1,7-naphthyridine-4-carboxylate]?
Answer: IC50 (HeLa cells): 440 nM; IC50 [1]: 53 nM

Question: What does the source list for `Cc1cnc(-c2ccn[nH]2)c2nc(N3CCOC[C@H]3C)cc(-c3cncn3C)c12` [Example 15, 5-methyl-4-(1-methyl-1H-imidazol-5-yl)-2-[(3R)-3-methylmorpholin-4-yl]-8-(1H-pyrazol-5-yl)-1,7-naphthyridine]?
Answer: IC50 (HeLa cells): 145 nM; IC50 [1]: 5.86 nM

Question: `Cc1ncc(-c2cc(N3CCOC[C@H]3C)nc3c(-c4ccn[nH]4)ncc(C)c23)s1` [Example 16, 5-methyl-2-[(3R)-3-methylmorpholin-4-yl]-4-(2-methyl-1,3-thiazol-5-yl)-8-(1H-pyrazol-5-yl)-1,7-naphthyridine] was tested. Which IC50 (HeLa cells) did it give?
Answer: 33.9 nM

Question: What about the IC50 [1] of the same compound?
Answer: 14.2 nM

Question: Which IC50 (HeLa cells) does the source give for `CCOP(C)(=O)c1cc(N2CCOC[C@H]2C)nc2c(-c3ccn[nH]3)ncc(C)c12` (stereo partly drawn) [Example 17, ethyl methyl{5-methyl-2-[(3R)-3-methylmorpholin-4-yl]-8-(1H-pyrazol-5-yl)-1,7-naphthyridin-4-yl}phosphinate] here?
Answer: 112 nM

Question: What about the IC50 [1] of the same compound?
Answer: 42.2 nM
